Assay results from ChEMBL document CHEMBL1156968, “2,5-Disubstituted pyridines as potent GPR119 agonists” (Bioorg Med Chem Lett, 2010).
Values after ≈ are worked out from the molar mass of the structure shown.

system: not listed separately; assay: Volume of distribution at steady state in mouse at 3 mg/kg, iv; format: ADME, organism-based; design: dose 3 mg/kg, route intravenous; details: in vivo, read-out: Vdss

Structure (SMILES)	Vd
CCCS(=O)(=O)N1CCN(c2ccc(OCC3CCN(C(=O)OC(C)C)CC3)cn2)CC1	0.76 L/kg

system: Mus musculus; assay: Clearance in mouse at 3 mg/kg, iv; format: ADME, organism-based; design: dose 3 mg/kg, route intravenous; details: in vivo

Structure (SMILES)	clearance
CCCS(=O)(=O)N1CCN(c2ccc(OCC3CCN(C(=O)OC(C)C)CC3)cn2)CC1	0.942 L/h/kg

system: not listed separately; assay: Tmax in mouse at 3 mg/kg, iv; format: ADME, organism-based; design: dose 3 mg/kg, route intravenous; details: in vivo

Structure (SMILES)	Tmax
CCCS(=O)(=O)N1CCN(c2ccc(OCC3CCN(C(=O)OC(C)C)CC3)cn2)CC1	45 min

biological target: T1, Glucose-dependent insulinotropic receptor (Homo sapiens, UniProt Q8TDV5); assay: Agonist activity at human GPR119 receptor expressed in CHO-K1 cells co-transfected with 6CRE-Luc after 5 hrs by luciferase reporter gene assay; format: functional, cell-based; details: not given
T1 sequence (Q8TDV5 whole entry): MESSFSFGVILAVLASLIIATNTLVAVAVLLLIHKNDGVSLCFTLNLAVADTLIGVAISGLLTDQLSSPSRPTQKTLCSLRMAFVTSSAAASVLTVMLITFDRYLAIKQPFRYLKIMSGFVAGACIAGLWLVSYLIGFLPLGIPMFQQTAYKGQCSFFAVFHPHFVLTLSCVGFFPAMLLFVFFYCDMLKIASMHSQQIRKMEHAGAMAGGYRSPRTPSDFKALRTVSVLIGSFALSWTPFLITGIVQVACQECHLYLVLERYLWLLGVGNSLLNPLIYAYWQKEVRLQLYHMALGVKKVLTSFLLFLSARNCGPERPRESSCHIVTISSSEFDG

Structure (SMILES)	EC50
CC(C)OC(=O)N1CCC(COc2ccc(N3CCN(S(=O)(=O)c4cccnc4)CC3)nc2)CC1	2 µM
CCCS(=O)(=O)N1CCN(c2ccc(OCC3CCN(C(=O)NC(C)C)CC3)cn2)CC1	1 µM
CC(C)OC(=O)N1CCC(COc2ccc(N3CCN(S(=O)(=O)N4CCCCC4)CC3)nc2)CC1	1 µM
CCCS(=O)(=O)N1CCN(c2ccc(OCC3CCN(C(=O)Nc4ccc(C(C)C)cc4)CC3)cn2)CC1	0.9 µM
CCS(=O)(=O)N1CCN(c2ccc(OCCC3CCN(C(=O)OC(C)C)CC3)cn2)CC1	1.2 µM
CCS(=O)(=O)N1CCN(c2ccc(OCC3CCN(C(=O)OC(C)C)CC3)cn2)CC1	1.3 µM
CC(C)OC(=O)N1CCC(COc2ccc(N3CCN(S(=O)(=O)c4cccs4)CC3)nc2)CC1	1.8 µM
CCCS(=O)(=O)N1CCN(c2ccc(OCC3CCN(C(=O)NC4CCCCC4)CC3)cn2)CC1	> 10 µM
CCCS(=O)(=O)N1CCN(c2ccc(OCC3CCN(C(=O)CC(C)C)CC3)cn2)CC1	1.6 µM
CCS(=O)(=O)N1CCN(c2ccc(OC3CCN(C(=O)OC(C)C)CC3)cn2)CC1	2.1 µM
CC(C)OC(=O)N1CCC(COc2ccc(N3CCN(S(=O)(=O)C(C)C)CC3)nc2)CC1	0.3 µM
CCCS(=O)(=O)N1CCN(c2ccc(OCC3CCN(C(=O)C(F)F)CC3)cn2)CC1	2.1 µM
CCCS(=O)(=O)N1CCN(c2ccc(OCCC3CCN(C(=O)OC(C)C)CC3)cn2)CC1	0.7 µM
CCN(CC)S(=O)(=O)N1CCN(c2ccc(OCC3CCN(C(=O)OC(C)C)CC3)cn2)CC1	1.2 µM
CCCS(=O)(=O)N1CCN(c2ccc(OCC3CCN(C(=O)CC(C)(C)C)CC3)cn2)CC1	2.8 µM
COCCS(=O)(=O)N1CCN(c2ccc(OCC3CCN(C(=O)OC(C)C)CC3)cn2)CC1	0.3 µM
CCCCS(=O)(=O)N1CCN(c2ccc(OCC3CCN(C(=O)OC(C)C)CC3)cn2)CC1	0.1 µM
CC(C)OC(=O)N1CCC(COc2ccc(N3CCN(S(=O)(=O)CC4CCCCC4)CC3)nc2)CC1	0.09 µM
CC(C)OC(=O)N1CCC(COc2ccc(N3CCN(S(=O)(=O)C4CCCCC4)CC3)nc2)CC1	0.2 µM
CC(=O)N1CCN(c2ccc(OCC3CCN(C(=O)OC(C)C)CC3)cn2)CC1	> 10 µM
CCCS(=O)(=O)N1CCN(c2ccc(OCC3CCN(C(=O)OC(C)C)CC3)cn2)CC1	0.3 µM
CC(C)OC(=O)N1CCC(COc2ccc(N3CCN(C(=O)c4ccco4)CC3)nc2)CC1	1.9 µM
CCCS(=O)(=O)N1CCN(c2ccc(OCC3CCN(C(=O)c4ccco4)CC3)cn2)CC1	2 µM
CC(C)NC(=O)CN1CCN(c2ccc(OCC3CCN(C(=O)OC(C)C)CC3)cn2)CC1	> 10 µM
COCCN1CCN(c2ccc(OCC3CCN(C(=O)OC(C)C)CC3)cn2)CC1	2.6 µM
CCCS(=O)(=O)N1CCN(c2ccc(OCC3CCN(C(=O)N4CCOCC4)CC3)cn2)CC1	> 10 µM
CC(C)OC(=O)N1CCC(COc2ccc(N3CCN(C(=O)N(C)C)CC3)nc2)CC1	> 10 µM
CCCS(=O)(=O)N1CCN(c2ccc(OCC3CCN(C(=O)NC(C)(C)C)CC3)cn2)CC1	0.8 µM

system: not listed separately; assay: AUC (0 to 24) in mouse at 3 mg/kg, iv; format: ADME, organism-based; design: time < 24 hr, dose 3 mg/kg, route intravenous; details: plasma

Structure (SMILES)	AUC at 24 h
CCCS(=O)(=O)N1CCN(c2ccc(OCC3CCN(C(=O)OC(C)C)CC3)cn2)CC1	3.13 µg·h/mL

system: not listed separately; assay: Cmax in mouse at 30 mg/kg, po; format: ADME, organism-based; design: dose 30 mg/kg, route oral; details: in vivo

Structure (SMILES)	Cmax
CCCS(=O)(=O)N1CCN(c2ccc(OCC3CCN(C(=O)OC(C)C)CC3)cn2)CC1	3 µg/mL

system: not listed separately; assay: Half life in mouse at 30 mg/kg, po; format: ADME, organism-based; design: dose 30 mg/kg, route oral; details: in vivo

Structure (SMILES)	half-life
CCCS(=O)(=O)N1CCN(c2ccc(OCC3CCN(C(=O)OC(C)C)CC3)cn2)CC1	24 min

system: not listed separately; assay: Half life in mouse at 3 mg/kg, iv; format: ADME, organism-based; design: dose 3 mg/kg, route intravenous; details: in vivo

Structure (SMILES)	half-life
CCCS(=O)(=O)N1CCN(c2ccc(OCC3CCN(C(=O)OC(C)C)CC3)cn2)CC1	37.2 min

system: not listed separately; assay: Tmax in mouse at 30 mg/kg, po; format: ADME, organism-based; design: dose 30 mg/kg, route oral; details: in vivo

Structure (SMILES)	Tmax
CCCS(=O)(=O)N1CCN(c2ccc(OCC3CCN(C(=O)OC(C)C)CC3)cn2)CC1	15 min

biological target: T2, Glucose-dependent insulinotropic receptor (Homo sapiens) (UniProt Q8TDV5); assay: Agonist activity at human GPR119 receptor expressed in CHO-K1 cells co-transfected with 6CRE-Luc after 5 hrs by luciferase reporter gene assay relative to N-(4-(1H-1,2,4-triazol-1-yl)phenyl)-5-nitro-6-(4-(pyridin-2-ylthio)piperidin-1-yl)pyrimidin-4-amine maximal response; format: functional, cell-based; details: not given
T2 sequence (whole entry): T1 sequence (Q8TDV5 whole entry)

Structure (SMILES)	Activity
CC(C)OC(=O)N1CCC(COc2ccc(N3CCN(S(=O)(=O)c4cccnc4)CC3)nc2)CC1	100%
CCCS(=O)(=O)N1CCN(c2ccc(OCC3CCN(C(=O)NC(C)C)CC3)cn2)CC1	45%
CC(C)OC(=O)N1CCC(COc2ccc(N3CCN(S(=O)(=O)N4CCCCC4)CC3)nc2)CC1	118%
CCCS(=O)(=O)N1CCN(c2ccc(OCC3CCN(C(=O)Nc4ccc(C(C)C)cc4)CC3)cn2)CC1	67%
CCS(=O)(=O)N1CCN(c2ccc(OCCC3CCN(C(=O)OC(C)C)CC3)cn2)CC1	69%
CCS(=O)(=O)N1CCN(c2ccc(OCC3CCN(C(=O)OC(C)C)CC3)cn2)CC1	167%
CC(C)OC(=O)N1CCC(COc2ccc(N3CCN(S(=O)(=O)c4cccs4)CC3)nc2)CC1	69%
CCCS(=O)(=O)N1CCN(c2ccc(OCC3CCN(C(=O)NC4CCCCC4)CC3)cn2)CC1	16%
CCCS(=O)(=O)N1CCN(c2ccc(OCC3CCN(C(=O)CC(C)C)CC3)cn2)CC1	186%
CCS(=O)(=O)N1CCN(c2ccc(OC3CCN(C(=O)OC(C)C)CC3)cn2)CC1	93%
CC(C)OC(=O)N1CCC(COc2ccc(N3CCN(S(=O)(=O)C(C)C)CC3)nc2)CC1	171%
CCCS(=O)(=O)N1CCN(c2ccc(OCC3CCN(C(=O)C(F)F)CC3)cn2)CC1	97%
CCCS(=O)(=O)N1CCN(c2ccc(OCCC3CCN(C(=O)OC(C)C)CC3)cn2)CC1	95%
CCN(CC)S(=O)(=O)N1CCN(c2ccc(OCC3CCN(C(=O)OC(C)C)CC3)cn2)CC1	125%
CCCS(=O)(=O)N1CCN(c2ccc(OCC3CCN(C(=O)CC(C)(C)C)CC3)cn2)CC1	175%
COCCS(=O)(=O)N1CCN(c2ccc(OCC3CCN(C(=O)OC(C)C)CC3)cn2)CC1	178%
CCCCS(=O)(=O)N1CCN(c2ccc(OCC3CCN(C(=O)OC(C)C)CC3)cn2)CC1	164%
CC(C)OC(=O)N1CCC(COc2ccc(N3CCN(S(=O)(=O)CC4CCCCC4)CC3)nc2)CC1	136%
CC(C)OC(=O)N1CCC(COc2ccc(N3CCN(S(=O)(=O)C4CCCCC4)CC3)nc2)CC1	165%
CC(=O)N1CCN(c2ccc(OCC3CCN(C(=O)OC(C)C)CC3)cn2)CC1	< 10%
CCCS(=O)(=O)N1CCN(c2ccc(OCC3CCN(C(=O)OC(C)C)CC3)cn2)CC1	153%
CC(C)OC(=O)N1CCC(COc2ccc(N3CCN(C(=O)c4ccco4)CC3)nc2)CC1	112%
CCCS(=O)(=O)N1CCN(c2ccc(OCC3CCN(C(=O)c4ccco4)CC3)cn2)CC1	112%
CC(C)NC(=O)CN1CCN(c2ccc(OCC3CCN(C(=O)OC(C)C)CC3)cn2)CC1	11%
COCCN1CCN(c2ccc(OCC3CCN(C(=O)OC(C)C)CC3)cn2)CC1	28%
CCCS(=O)(=O)N1CCN(c2ccc(OCC3CCN(C(=O)N4CCOCC4)CC3)cn2)CC1	41%
CC(C)OC(=O)N1CCC(COc2ccc(N3CCN(C(=O)N(C)C)CC3)nc2)CC1	23%
CCCS(=O)(=O)N1CCN(c2ccc(OCC3CCN(C(=O)NC(C)(C)C)CC3)cn2)CC1	75%

biological target: T1, Glucose-dependent insulinotropic receptor; assay: Agonist activity at human GPR119 receptor by cAMP mobilization assay; format: functional; details: not given

Structure (SMILES)	EC50
O=[N+]([O-])c1c(Nc2ccc(-n3cncn3)cc2)ncnc1N1CCC(Sc2ccccn2)CC1	0.13 µM

system: not listed separately; assay: Cmax in mouse at 3 mg/kg, iv; format: ADME, organism-based; design: dose 3 mg/kg, route intravenous; details: in vivo

Structure (SMILES)	Cmax
CCCS(=O)(=O)N1CCN(c2ccc(OCC3CCN(C(=O)OC(C)C)CC3)cn2)CC1	3.08 µg/mL

system: not listed separately; assay: Solubility in fasted simulated intestinal fluid at pH 6.5; format: physicochemical; details: not given

Structure (SMILES)	solubility
CCCS(=O)(=O)N1CCN(c2ccc(OCC3CCN(C(=O)OC(C)C)CC3)cn2)CC1	3.41 µg/mL (≈ 7.28 µM)

system: not listed separately; assay: Oral bioavailability in mouse at 30 mg/kg; format: ADME, organism-based; details: in vivo

Structure (SMILES)	bioavailability
CCCS(=O)(=O)N1CCN(c2ccc(OCC3CCN(C(=O)OC(C)C)CC3)cn2)CC1	8%

system: not listed separately; assay: Membrane permeability by PAMPA method; format: ADME; details: read-out: permeability

Structure (SMILES)	Papp
CCCS(=O)(=O)N1CCN(c2ccc(OCC3CCN(C(=O)OC(C)C)CC3)cn2)CC1	470 nm/s

system: not listed separately; assay: AUC (0 to 24) in mouse at 30 mg/kg, po; format: ADME, organism-based; design: time < 24 hr, dose 30 mg/kg, route oral; details: plasma

Structure (SMILES)	AUC at 24 h
CCCS(=O)(=O)N1CCN(c2ccc(OCC3CCN(C(=O)OC(C)C)CC3)cn2)CC1	2.35 µg·h/mL
